Test results published in US12447170B2, “Use of maribavir in treatment regimens” (priority 2021, dated 2025).
“Also recorded” adds a separate entry of the source.

Key:
CYP2A6 = biological target: T1, CYP2A6 (Homo sapiens, UniProt P11509); assay: Reversible CYP inhibition in human liver microsomes (HLM); assay type: in vitro ADME; conditions: up to 100 μM
T1 construct: from tissue; host or cells: human liver microsomes
T1 sequence (P11509 1-494): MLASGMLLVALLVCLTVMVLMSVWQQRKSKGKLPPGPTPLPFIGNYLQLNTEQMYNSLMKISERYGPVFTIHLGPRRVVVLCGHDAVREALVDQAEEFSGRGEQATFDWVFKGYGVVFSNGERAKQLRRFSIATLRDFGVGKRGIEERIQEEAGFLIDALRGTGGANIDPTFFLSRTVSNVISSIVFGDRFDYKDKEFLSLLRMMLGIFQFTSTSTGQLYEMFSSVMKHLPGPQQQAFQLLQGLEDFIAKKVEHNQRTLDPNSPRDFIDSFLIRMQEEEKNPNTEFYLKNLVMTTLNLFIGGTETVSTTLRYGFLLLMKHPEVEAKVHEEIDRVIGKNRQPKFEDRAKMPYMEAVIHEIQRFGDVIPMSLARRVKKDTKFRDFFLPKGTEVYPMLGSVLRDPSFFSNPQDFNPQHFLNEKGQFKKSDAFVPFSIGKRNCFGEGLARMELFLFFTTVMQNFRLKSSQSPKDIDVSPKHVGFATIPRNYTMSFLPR
Procedure: (§1) HLM were used to evaluate maribavir's half maximal inhibitory concentration (IC50) on inhibition of activities of nine CYP isoforms. Probe substrates were phenacetin (CYP1A2), coumarin (CYP2A6), bupropion (CYP2B6), paclitaxel (CYP2C8), tolbutamide (CYP2C9), (S)-mephenytoin (CYP2C19), dextromethorphan (CYP2D6), clorzoxazone (CYP2E1), and midazolam and testosterone (CYP3A4).
(§2) CYP activities with 0, 0.1, 0.3, 1, 3, 10, 30, and 100 μM of maribavir were evaluated.

CYP2B6 = biological target: T2, CYP2B6 (Homo sapiens, UniProt P20813); assay: as above; assay type: in vitro ADME; conditions: up to 100 μM
T2 construct: from tissue; host or cells: human liver microsomes
T2 sequence (P20813 1-491): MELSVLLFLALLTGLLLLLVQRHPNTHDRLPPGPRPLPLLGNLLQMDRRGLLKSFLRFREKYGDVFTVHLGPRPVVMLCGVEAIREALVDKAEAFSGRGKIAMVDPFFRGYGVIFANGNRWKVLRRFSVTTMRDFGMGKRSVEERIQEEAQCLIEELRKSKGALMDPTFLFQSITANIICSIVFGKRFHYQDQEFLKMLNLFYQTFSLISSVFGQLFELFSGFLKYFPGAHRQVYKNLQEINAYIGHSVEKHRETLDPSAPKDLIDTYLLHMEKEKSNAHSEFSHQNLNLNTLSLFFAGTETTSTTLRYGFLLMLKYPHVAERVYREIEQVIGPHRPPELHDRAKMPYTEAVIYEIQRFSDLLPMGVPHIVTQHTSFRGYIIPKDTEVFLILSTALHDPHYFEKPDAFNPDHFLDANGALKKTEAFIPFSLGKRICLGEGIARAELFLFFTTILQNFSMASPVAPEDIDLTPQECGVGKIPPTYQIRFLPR
Procedure: as §1, §2

CYP2E1 = biological target: T3, CYP2E1 (Homo sapiens, UniProt P05181); assay: as above; assay type: in vitro ADME; conditions: up to 100 μM
T3 construct: from tissue; host or cells: human liver microsomes
T3 sequence (P05181 whole entry): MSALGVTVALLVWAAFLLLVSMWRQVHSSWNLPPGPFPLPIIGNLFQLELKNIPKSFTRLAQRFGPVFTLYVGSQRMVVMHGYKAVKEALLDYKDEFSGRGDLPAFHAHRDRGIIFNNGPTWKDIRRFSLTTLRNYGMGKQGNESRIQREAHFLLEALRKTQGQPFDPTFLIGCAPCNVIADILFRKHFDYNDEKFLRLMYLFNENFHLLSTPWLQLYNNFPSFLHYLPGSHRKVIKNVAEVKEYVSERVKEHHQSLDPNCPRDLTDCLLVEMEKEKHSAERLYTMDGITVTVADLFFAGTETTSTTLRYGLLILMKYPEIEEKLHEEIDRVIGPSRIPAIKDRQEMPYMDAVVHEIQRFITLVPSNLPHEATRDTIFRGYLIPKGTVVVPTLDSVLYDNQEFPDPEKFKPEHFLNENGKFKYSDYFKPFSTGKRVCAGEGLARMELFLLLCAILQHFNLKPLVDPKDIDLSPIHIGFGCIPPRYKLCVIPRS
Procedure: as §1, §2

CYP3A4 = biological target: T4, CYP3A4 (Homo sapiens, UniProt P08684); assay: as above; assay type: in vitro ADME; conditions: up to 100 μM
T4 construct: from tissue; host or cells: human liver microsomes
T4 sequence (P08684 whole entry): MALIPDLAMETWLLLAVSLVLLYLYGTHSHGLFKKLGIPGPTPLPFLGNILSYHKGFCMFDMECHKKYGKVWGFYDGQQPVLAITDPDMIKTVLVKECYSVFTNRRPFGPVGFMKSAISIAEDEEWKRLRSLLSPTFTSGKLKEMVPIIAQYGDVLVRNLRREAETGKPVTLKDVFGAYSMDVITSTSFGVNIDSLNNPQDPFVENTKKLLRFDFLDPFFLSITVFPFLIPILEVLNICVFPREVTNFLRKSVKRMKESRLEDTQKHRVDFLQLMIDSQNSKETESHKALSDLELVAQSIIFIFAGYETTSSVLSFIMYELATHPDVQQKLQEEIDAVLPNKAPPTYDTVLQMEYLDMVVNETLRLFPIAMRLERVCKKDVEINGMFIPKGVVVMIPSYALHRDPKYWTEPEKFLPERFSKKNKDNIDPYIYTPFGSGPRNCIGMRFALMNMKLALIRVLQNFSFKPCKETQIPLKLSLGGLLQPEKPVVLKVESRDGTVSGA
Procedure: as §1, §2

[1] = parameters: species or system human; conditions: human, in vivo
Description: Accumulated data have shown that maribavir is metabolized primarily in the liver, and renal clearance is a minor route (representing less than 5 percent). VP 44469 (N-dealkylated Maribavir) was the principal metabolite of maribavir in both urine and feces. In plasma, unchanged maribavir and VP 44469 represented approximately 69% and 9.8% of total radioactivity, respectively. The hepatic metabolism of maribavir was primarily driven by cytochrome P450s. CYP3A4 and CYP1A2 were responsible for 70 to 85% and 15 to 30% of the CYP-driven pathways, respectively. Glucuronidation accounted for less than 20% of metabolism.
(§3) Distribution models evaluated included a full PBPK model and a minimal PBPK model, both of which consider liver and intestinal metabolism. Mass balance data from the [^14C] ADME study indicated a fraction absorbed of 0.83 or greater following oral administration of 400 mg dose of maribavir. Absorption models evaluated included a simple first-order absorption model and a more mechanistic “Advanced Dissolution Absorption and Metabolism” (ADAM) model.

[2] = PBPK model simulation of maribavir alone; parameters: species or system human
Procedure: A Physiologically-based Pharmacokinetic (“PBPK”) model based on prior in vitro and in vivo information on the metabolism and kinetics of maribavir was constructed with the aim of predicting plasma concentration-time profiles of maribavir and to evaluate the likely impact of coadministration of CYP3A4 inhibitors and inducers on the kinetics of maribavir in healthy subjects.
A combination of in vitro data and clinical pharmacokinetic data obtained following a single dose of 400 mg maribavir were used to develop the PBPK model. […] The Cmax was marginally under predicted, which could be expected because the PBPK model was optimized for better prediction of C12h.
as §3
A comparison of observed and predicted plasma concentrations of maribavir following single oral doses of 800 mg and 1600 mg to healthy patients […]. […] The simulated and observed maribavir concentrations were in reasonable agreement.
A comparison of observed and predicted plasma concentrations of maribavir following multiple oral 400 mg BID doses of maribavir was performed. […] The simulated and observed maribavir concentrations were in reasonable agreement.

[3] = maribavir 400 mg BID alone (Table 7A)
[4] = maribavir 400 mg BID, 5 doses (Table 5A)
[5] = maribavir 400 mg single dose alone (Table 6A)
[6] = maribavir 400 mg single oral dose
[7] = maribavir 800 mg single oral dose
[8] = maribavir 1600 mg single oral dose

## CC(C)Nc1nc2cc(Cl)c(Cl)cc2n1[C@H]1O[C@@H](CO)[C@H](O)[C@@H]1O [maribavir, (2S,3S,4R,5S)-2-(5,6-dichloro-2-(isopropylamino)-1H-benzo[d]imidazol-1-yl)-5-(hydroxymethyl)tetrahydrofuran-3,4-diol]
CYP2A6
  reversible inhibition of CYP2A6: not a reversible inhibitor; also recorded: no significant inhibition
CYP2B6
  reversible inhibition of CYP2B6: not a reversible inhibitor; also recorded: no significant inhibition
CYP2E1
  reversible inhibition of CYP2E1: not a reversible inhibitor; also recorded: no significant inhibition
CYP3A4
  reversible inhibition of CYP3A4: not a reversible inhibitor; also recorded: no significant inhibition
[1]
  contribution of CYP1A2 to the CYP-driven pathways: 15-30%
  contribution of CYP3A4 to the CYP-driven pathways: 70-85%
  share of metabolism by glucuronidation: less than 20%
  share of total radioactivity in plasma: approximately 69%
[2]; [3]
  AUC(0-12 h), RATIO GEOMETRIC MEAN PREDICTED/OBSERVED: 1.03
  AUC(0-12 h), RATIO MEAN PREDICTED/OBSERVED: 1.06
  C12 h, RATIO GEOMETRIC MEAN PREDICTED/OBSERVED: 0.92
  C12 h, RATIO MEAN PREDICTED/OBSERVED: 1.14
  Cmax, RATIO GEOMETRIC MEAN PREDICTED/OBSERVED: 0.85
  Cmax, RATIO MEAN PREDICTED/OBSERVED: 0.84
[2]; [4]
  AUC(0-∞), RATIO MEAN PREDICTED/OBSERVED: 1.07
  C12 h, RATIO MEAN PREDICTED/OBSERVED: 1.18
  Cmax, RATIO MEAN PREDICTED/OBSERVED: 0.85
[2]; [5]
  AUC(0-∞), GEOMEAN RATIO PREDICTED/OBSERVED: 0.78
  AUC(0-∞), MEAN RATIO PREDICTED/OBSERVED: 0.79
  Cmax, GEOMEAN RATIO PREDICTED/OBSERVED: 0.61
  Cmax, MEAN RATIO PREDICTED/OBSERVED: 0.62
[2]; [6]
  AUC(0-∞), RATIO MEAN PREDICTED/OBSERVED: 1.00
  Cmax, RATIO MEAN PREDICTED/OBSERVED: 0.72
[2]; [7]
  AUC(0-∞), RATIO MEAN PREDICTED/OBSERVED: 1.07
  Cmax, RATIO MEAN PREDICTED/OBSERVED: 0.91
[2]; [8]
  AUC(0-∞), RATIO MEAN PREDICTED/OBSERVED: 0.90
  Cmax, RATIO MEAN PREDICTED/OBSERVED: 0.99
